Results published in patent US20260167638A1, “PHARMACEUTICAL COMPOUND, SALTS THEREOF, FORMULATIONS THEREOF, AND METHODS OF MAKING AND USING SAME” (Genentech, Inc., priority 2018, published 2026).
Values joined by “and” are separate entries in the source; they are usually repeats but may differ in a detail not shown here. Equal values may be shown once.

Columns and labels:
[1] = Dissolution and precipitation in pH 6.5 phosphate buffer at 37° C. containing HPMC; format: physicochemical
Excerpt: The inclusion of HPMC in the tablet of Example 16 was to maintain the supersaturation of Compound I API after its mono-tosylate salt dissolves. […]

[2] = Water sorption / dynamic vapor sorption (DVS) hygroscopicity; format: physicochemical
Description: The pKa value of Compound I free base was calculated (ACD Labs pKa DB, v10.0) as 2.12±0.33. Therefore, Compound I free base was considered as a very weak base that could be protonated by strong acids. […] A sample of Compound I free base was analyzed by powder x-ray diffraction and found to be crystalline without any readily detectable amorphous content. […] (onset temperature).
The maximum water uptake for the amorphous salt was about 40% whereas the maximum water uptake for the crystalline di-hydrochloride salt was higher, with about 54% uptake.
The hygroscopic nature of the besylate salt was examined by dynamic vapor sorption analysis (DVS). […] Below 80% relative humidity not much water was adsorbed.

[3] = Example 19 crossover pharmacokinetics of four oral tablet formulations in fasted dogs; format: in vivo, beagle dogs; settings: Example 19, fasted dogs, 200 mg tablet PO; for concentration at 1 h: read-out: Plasma concentration of Compound I at 1 hour; for concentration at 24 h: read-out: Plasma concentration of Compound I at 24 hours
Description: (§1) Pharmacokinetics parameters of formulations of Compound I and its salts in dogs were determined by orally administering a test formulation tablet at 200 mg of active (Compound I or salt) per dog.
(§2) Blood samples were taken at various times after administration, plasma prepared, and submitted to analysis for parent drug using a qualified LC-MS-MS assay. Pharmacokinetics parameters derived from the plasma analytical data were determined using non-compartmental analysis.
Pharmacokinetics of Compound I was determined in pentagastrin-pretreated male beagle dogs following a single oral (PO) administration at 200 mg/tablet/dog in a 4-phase crossover study with a washout period of at least 7 days in between each phase. Five male non-naive purebred beagle dogs were used in each phase of study. All dogs were pretreated with pentagastrin (6 μg/kg intramuscular administrations) approximately 30 minutes before administration of test article.
Four tablet formulations of test article were assessed, each containing 200 mg test article (free base equivalent). Animals were fasted overnight prior to PO dosing through approximately 4 hours postdose. The tablet dose was administered orally, followed by approximately 10 mL of RO (reverse osmosis) water. Phase 1 animals were given tablets containing Compound I in nanosuspension formulation as described above, phase 2 animals were given tablets containing Compound I in jet-milled form as described above, and phase 4 animals received tablets containing Compound I mono-tosylate salt as described above. In phase 3, tablets including an amorphous solid dispersion as described above were crushed and suspended in water, then dosed to the animals. Each animal received one triturated tablet, which was administered orally by gavage as an aqueous suspension formulation. Blood samples were collected predose and at 0.25, 0.5 1, 2, 4, 8, 24, 36 and 48 hours after the oral dose. Plasma was harvested, and the concentration of Compound I in each sample was determined by a non-validated LC/MS/MS assay. The assay limit of quantitation was 1.02 to 5.1 ng/mL for Compound I.
Mean Compound I concentrations measured in plasma were used to construct semi-logarithmic plasma concentration-time curves (FIG. 13). Pharmacokinetic analysis was performed using a non-compartmental method.

[4] = Example 21 crossover pharmacokinetics of mono-tosylate and di-tosylate tablets in fasted dogs; format: in vivo, beagle dogs; design: Plasma concentration of Compound I at 0.25 hours: unit: ng/mL; settings: Example 21, fasted dogs, 200 mg tablet PO
Description: as §1, §2
Pharmacokinetics of Compound I were determined in pentagastrin-pretreated male beagle dogs following a single oral (PO) administration at 200 mg/tablet per dog in a 2-phase crossover designed study, with a washout period of at least 7 days in between each phase. Five male, non-naive, purebred beagle dogs were used in each phase of the 2-phase crossover study. All dogs were pretreated with pentagastrin (6 μg/kg intramuscular administrations) approximately 30 minutes before test article administration.
Two tablet formulations (mono-tosylate and di-tosylate, as described above) of test article were assessed. Animals were fasted overnight prior to PO dosing through approximately 4 hours post-dose. The tablet was administered orally, followed by approximately 10 mL of reverse osmosis water. Phase 1 animals were given tablets containing Compound I mono-tosylate, and phase 2 animals were given tablets containing Compound I di-tosylate salt. Blood samples were collected pre-dose and at 0.25, 0.5. 1. 2, 4, 8, 24, 36, and 48 hours after the oral dose. Plasma was harvested, and the concentration of Compound I in each plasma sample was determined by an LC/MS/MS assay. The assay lower limit of quantitation was 20 ng/mL for Compound I. Mean Compound I concentrations measured in plasma were used to construct semi-logarithmic plasma concentration-time curves (FIG. 1). Pharmacokinetic analysis was performed using non-compartmental methods.

[5] = individual subjects, LOQ 1.02 to 5.1 ng/mL, mono-tosylate salt
[6] = individual subjects, mono-tosylate salt
[7] = male, beagle, dog, plasma, po, 200 mg, mean
[8] = male, beagle, dog, plasma, po, 200 mg, mean, read-out: AUC0-rt
[9] = male, beagle, dog, plasma, po, 200 mg, mean, read-out: Cmax
[10] = male, beagle, dog, plasma, po, 200 mg/tablet/dog, individual subjects, LOQ 1.02 to 5.1 ng/mL
[11] = male, beagle, dog, plasma, po, 200 mg/tablet/dog, mean, LOQ 1.02 to 5.1 ng/mL
[12] = individual subjects, LLOQ 20 ng/mL, mono-tosylate salt

With `Cc1ccc(S(=O)(=O)O)cc1.Cn1cc(-c2cn(-c3ccc(OC(F)(F)F)cc3)c(=O)c3ncn(C)c23)cn1` [mono-tosylate, 1-methyl-7-(1-methyl-1H-pyrazol-4-yl)-5-(4-(trifluoromethoxy)phenyl)-1,5-dihydro-4H-imidazo[4,5-c]pyridin-4-one, mono-tosylate salt] the “Compound I concentration maintained” value ([1]; HPMC 5 μg/mL) was 160 µg/mL, the “maintenance of Compound I supersaturation” value ([1]; HPMC 1 or 2 μg/mL) was “did not substantially maintain Compound I supersaturation” and the “API concentration after dissolution” value ([1]; absence of HPMC, in 10 minutes) was 80 µg/mL. For the same molecule, the “reversibility of water adsorption within the timeframe of observation” value [2] was “essentially reversible”, the “Plasma concentration of Compound I at 0.25 hours” value [3, 5] was 309 and 1500 and 2900 and 39.7 and 571 and the “Plasma concentration of Compound I at 0.5 hours” value [3, 5] was 3650 and 3910 and 5440 and 726 and 3520. The “Plasma concentration of Compound I at 1 hour” value [3, 5] was 5470 and 7310 and 4880 and 5360, the “Plasma concentration of Compound I at 2 hours” value [3, 5] was 9370 and 10200 and 5680 and 5450 and 4130 and the “Plasma concentration of Compound I at 4 hours” value [3, 5] was 8040 and 12900 and 4590 and 4840 and 3480. The “Plasma concentration of Compound I at 8 hours” value [3, 5] was 3650 and 6910 and 2500 and 3060 and 1630, the “Plasma concentration of Compound I at 24 hours” value [3, 5] was 597 and BLQ (3×) and the “Plasma concentration of Compound I at 36 hours” value [3, 5] was 11.0 and 17.8 and BLQ (2×) and 842. For the same molecule, the “Plasma concentration of Compound I at 48 hours” value [3, 5] was “BLQ (3×) and 200 and 10.1”, the AUC0-last [3, 6] was 76500 ng·h/mL and 116000 ng·h/mL and 44300 ng·h/mL and 122000 ng·h/mL and 34200 ng·h/mL and the AUC0-rt [3, 6] was 76600 ng·h/mL and 116000 ng·h/mL and 44400 ng·h/mL and 123000 ng·h/mL and 34300 ng·h/mL. For the same molecule, the Cmax [3, 6] was 9450 ng/mL and 12900 ng/mL and 7310 ng/mL and 5450 ng/mL and 5360 ng/mL, the tmax [3, 6] was 1.00 h and the AUC(0-t) [3, 7] was 78500 ng·h/mL. The AUC [3, 8] was 78900 ng·h/mL, the Cmax [3, 9] was 8100 ng/mL and the tmax ([3]; male, beagle, dog, plasma, po, 200 mg, mean, read-out: tmax) was 1.8 h. For the same molecule, the concentration at 1 h [3, 10] was 9450 ng/mL, the concentration at 24 h [3, 10] was 352 ng/mL and the concentration at 0.25 h ([3]; male, beagle, dog, plasma, po, 200 mg/tablet/dog, mean, LOQ 1.02 to 5.1 ng/mL, read-out: Plasma concentration of Compound I at 0.25 hours) was 1060 ng/mL. The concentration at 0.5 h ([3]; male, beagle, dog, plasma, po, 200 mg/tablet/dog, mean, LOQ 1.02 to 5.1 ng/mL, read-out: Plasma concentration of Compound I at 0.5 hours) was 3450 ng/mL, the concentration at 1 h [3, 11] was 6490 ng/mL and the concentration at 2 h ([3]; male, beagle, dog, plasma, po, 200 mg/tablet/dog, mean, LOQ 1.02 to 5.1 ng/mL, read-out: Plasma concentration of Compound I at 2 hours) was 6960 ng/mL. The concentration at 4 h ([3]; male, beagle, dog, plasma, po, 200 mg/tablet/dog, mean, LOQ 1.02 to 5.1 ng/mL, read-out: Plasma concentration of Compound I at 4 hours) was 6780 ng/mL, the concentration at 8 h ([3]; male, beagle, dog, plasma, po, 200 mg/tablet/dog, mean, LOQ 1.02 to 5.1 ng/mL, read-out: Plasma concentration of Compound I at 8 hours) was 3550 ng/mL and the concentration at 24 h [3, 11] was 1070 ng/mL. For the same molecule, the concentration at 36 h ([3]; male, beagle, dog, plasma, po, 200 mg/tablet/dog, mean, LOQ 1.02 to 5.1 ng/mL, read-out: Plasma concentration of Compound I at 36 hours) was 290 ng/mL, the concentration at 48 h ([3]; male, beagle, dog, plasma, po, 200 mg/tablet/dog, mean, LOQ 1.02 to 5.1 ng/mL, read-out: Plasma concentration of Compound I at 48 hours) was 105 ng/mL and the “Plasma concentration of Compound I at 48 hours” value ([4]; individual subjects, LLOQ 20 ng/mL) was “BLQ”. For the same molecule, the “Plasma concentration of Compound I at 0.25 hours” value [4, 12] was 179 and 452 and 100 and 74.0 and 161, the “Plasma concentration of Compound I at 0.5 hours” value [4, 12] was 1180 and 3040 and 1320 and 3170 and the “Plasma concentration of Compound I at 4 hours” value [4, 12] was 3550 and 5080 and 7990 and 10200 and 1850. For the same molecule, the “Plasma concentration of Compound I at 8 hours” value [4, 12] was 1140 and 3110 and 5060 and 5380 and 378, the “Plasma concentration of Compound I at 24 hours” value [4, 12] was 95.5 and 4080 and 252 and 1050 and 25.7 and the “Plasma concentration of Compound I at 36 hours” value [4, 12] was “BLQ (3×) and 897 and 74.4”. For the same molecule, the AUC0-last [4, 6] was 26900 ng·h/mL and 122000 ng·h/mL and 77900 ng·h/mL and 110000 ng·h/mL and 14000 ng·h/mL, the AUC0-rt [4, 6] was 27400 ng·h/mL and 123000 ng·h/mL and 79400 ng·h/mL and 110000 ng·h/mL and 14100 ng·h/mL and the Cmax [4, 6] was 3570 ng/mL and 5940 ng/mL and 9410 ng/mL and 10500 ng/mL and 2960 ng/mL. For the same molecule, the “Plasma concentration of Compound I at 48 hours” value ([4]; mean, LLOQ 20 ng/mL) was “BLQ”, the AUC(0-t) [4, 7] was 70200 ng·h/mL and the AUC [4, 8] was 70900 ng·h/mL. It also gave a Cmax [4, 9] of 6480 ng/mL, a concentration at 0.25 h ([4]; male, beagle, dog, plasma, po, 200 mg/tablet per dog, mean, LLOQ 20 ng/mL, read-out: Plasma concentration of Compound I at 0.25 hours) of 193 ng/mL and a concentration at 0.5 h ([4]; male, beagle, dog, plasma, po, 200 mg/tablet per dog, mean, LLOQ 20 ng/mL, read-out: Plasma concentration of Compound I at 0.5 hours) of 1910 ng/mL. The concentration at 1 h ([4]; male, beagle, dog, plasma, po, 200 mg/tablet per dog, mean, LLOQ 20 ng/mL, read-out: Plasma concentration of Compound I at 1 hour) was 4690 ng/mL, the concentration at 2 h ([4]; male, beagle, dog, plasma, po, 200 mg/tablet per dog, mean, LLOQ 20 ng/mL, read-out: Plasma concentration of Compound I at 2 hours) was 6480 ng/mL and the concentration at 4 h ([4]; male, beagle, dog, plasma, po, 200 mg/tablet per dog, mean, LLOQ 20 ng/mL, read-out: Plasma concentration of Compound I at 4 hours) was 5730 ng/mL. For the same molecule, the concentration at 8 h ([4]; male, beagle, dog, plasma, po, 200 mg/tablet per dog, mean, LLOQ 20 ng/mL, read-out: Plasma concentration of Compound I at 8 hours) was 3010 ng/mL, the concentration at 24 h ([4]; male, beagle, dog, plasma, po, 200 mg/tablet per dog, mean, LLOQ 20 ng/mL, read-out: Plasma concentration of Compound I at 24 hours) was 1100 ng/mL and the concentration at 36 h ([4]; male, beagle, dog, plasma, po, 200 mg/tablet per dog, mean, LLOQ 20 ng/mL, read-out: Plasma concentration of Compound I at 36 hours) was 486 ng/mL. For the same molecule, the tmax ([4]; male, beagle, dog, plasma, mean, read-out: tmax) was 2 h.
